From patent US10618905B2, “Pyrimidine-based compounds for the treatment of cancer” (G1 Therapeutics, Inc., priority 2016, dated 2020)

Experiments:
Format in all cases: biochemical
[1] = biological target: CDK4/Cyclin D1 (Homo sapiens, UniProt P11802); assay: CDK4/CyclinD1 kinase assay (Nanosyn, Caliper microfluidic); details: 12-point dose-response, ATP at Km (200 μM), 1 nM enzyme, 10 hr
Procedure: (§1) Selected compounds disclosed herein were tested in CDK4/cyclinD1, CDK2/CycA and CDK2/cyclinE kinase assays by Nanosyn (Santa Clara, Calif.) to determine their inhibitory effect on these CDKs. The assays were performed using microfluidic kinase detection technology (Caliper Assay Platform). The compounds were tested in 12-point dose-response format in singlicate at Km for ATP. Phosphoacceptor substrate peptide concentration used was 1 μM for all assays and Staurosporine was used as the reference compound for all assays. Specifics of each assay are as described below:
CDK4/CyclinD1: Enzyme concentration: 1 nM; ATP concentration: 200 μM; Incubation time: 10 hr.

[2] = biological target: CDK6/Cyclin D3 (Homo sapiens, UniProt Q00534); assay: CDK6/Cyclin D3 kinase assay
CDK6/Cyclin D3, sequence (Q00534 whole entry): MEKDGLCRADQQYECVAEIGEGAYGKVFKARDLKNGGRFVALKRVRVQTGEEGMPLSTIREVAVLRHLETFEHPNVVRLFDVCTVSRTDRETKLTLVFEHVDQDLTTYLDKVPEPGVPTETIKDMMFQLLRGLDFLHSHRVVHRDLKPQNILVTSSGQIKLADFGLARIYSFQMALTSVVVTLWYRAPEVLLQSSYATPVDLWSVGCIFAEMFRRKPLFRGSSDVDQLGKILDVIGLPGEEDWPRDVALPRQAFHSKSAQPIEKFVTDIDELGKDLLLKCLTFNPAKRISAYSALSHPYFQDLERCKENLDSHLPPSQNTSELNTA
CDK6/Cyclin D3, sequence (P30281 whole entry partner): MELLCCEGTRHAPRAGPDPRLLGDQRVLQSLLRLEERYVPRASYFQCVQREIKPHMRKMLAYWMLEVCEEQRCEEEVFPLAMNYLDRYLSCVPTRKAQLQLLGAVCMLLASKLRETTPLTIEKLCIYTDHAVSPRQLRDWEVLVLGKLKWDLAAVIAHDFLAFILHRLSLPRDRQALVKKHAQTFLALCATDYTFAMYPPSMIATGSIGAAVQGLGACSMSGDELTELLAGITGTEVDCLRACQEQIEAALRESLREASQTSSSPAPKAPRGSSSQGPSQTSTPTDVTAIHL
Procedure: [The procedure below names another target; the source lists this target under the same test.] as §1, with “assays.” for “assays. Specifics of each assay are as described below:”

[3] = biological target: CDK2/Cyclin E (Homo sapiens, UniProt P24941); assay: CDK2/CyclinE kinase assay (Nanosyn, Caliper microfluidic); details: 12-point dose-response, ATP at Km (100 μM), 0.28 nM enzyme, 1 hr
Procedure: as §1
CDK2/CyclinE: Enzyme concentration: 0.28 nM; ATP concentration: 100 μM; Incubation time: 1 hr.

[4] = biological target: CDK2/Cyclin A (Homo sapiens, UniProt P24941); assay: CDK2/CyclinA kinase assay (Nanosyn, Caliper microfluidic); details: 12-point dose-response, ATP at Km (50 μM), 0.2 nM enzyme, 3 hr
Procedure: as §1
CDK2/CyclinA: Enzyme concentration: 0.2 nM; ATP concentration: 50 μM; Incubation time: 3 hr.

[5] = biological target: CDK9/Cyclin T (Homo sapiens, UniProt P50750); assay: CDK9/Cyclin T kinase assay
CDK9/Cyclin T, sequence (P50750 whole entry): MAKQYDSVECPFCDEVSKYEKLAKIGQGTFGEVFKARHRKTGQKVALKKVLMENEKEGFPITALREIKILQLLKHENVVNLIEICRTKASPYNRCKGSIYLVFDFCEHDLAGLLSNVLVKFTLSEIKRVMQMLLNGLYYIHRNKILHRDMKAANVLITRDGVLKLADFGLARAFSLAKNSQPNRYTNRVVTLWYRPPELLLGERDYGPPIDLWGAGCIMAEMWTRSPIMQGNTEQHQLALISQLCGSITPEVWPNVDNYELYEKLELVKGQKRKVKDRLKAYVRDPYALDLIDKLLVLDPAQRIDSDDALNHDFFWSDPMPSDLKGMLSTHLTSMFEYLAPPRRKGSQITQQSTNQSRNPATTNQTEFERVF
CDK9/Cyclin T, sequence (O60563 whole entry partner): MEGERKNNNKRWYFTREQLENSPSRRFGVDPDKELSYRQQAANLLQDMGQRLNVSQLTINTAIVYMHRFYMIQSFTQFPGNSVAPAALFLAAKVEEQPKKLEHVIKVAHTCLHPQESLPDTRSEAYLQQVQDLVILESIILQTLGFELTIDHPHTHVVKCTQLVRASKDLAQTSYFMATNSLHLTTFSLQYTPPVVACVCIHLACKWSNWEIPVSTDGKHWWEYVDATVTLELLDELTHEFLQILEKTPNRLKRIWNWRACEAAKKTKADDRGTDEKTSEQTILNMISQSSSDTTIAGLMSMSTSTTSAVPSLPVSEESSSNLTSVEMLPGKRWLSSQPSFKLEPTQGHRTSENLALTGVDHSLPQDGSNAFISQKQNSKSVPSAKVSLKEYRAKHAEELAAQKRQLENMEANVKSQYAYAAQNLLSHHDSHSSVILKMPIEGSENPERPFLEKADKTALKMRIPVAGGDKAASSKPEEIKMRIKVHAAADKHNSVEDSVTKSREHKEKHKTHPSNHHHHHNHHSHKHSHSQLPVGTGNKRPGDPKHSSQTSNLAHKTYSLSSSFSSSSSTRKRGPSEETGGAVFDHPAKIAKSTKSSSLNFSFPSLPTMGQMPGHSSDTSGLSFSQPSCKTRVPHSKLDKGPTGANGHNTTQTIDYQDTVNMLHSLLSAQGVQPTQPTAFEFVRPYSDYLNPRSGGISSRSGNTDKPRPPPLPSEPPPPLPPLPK

CDK4/Cyclin D1, sequence (P11802 whole entry): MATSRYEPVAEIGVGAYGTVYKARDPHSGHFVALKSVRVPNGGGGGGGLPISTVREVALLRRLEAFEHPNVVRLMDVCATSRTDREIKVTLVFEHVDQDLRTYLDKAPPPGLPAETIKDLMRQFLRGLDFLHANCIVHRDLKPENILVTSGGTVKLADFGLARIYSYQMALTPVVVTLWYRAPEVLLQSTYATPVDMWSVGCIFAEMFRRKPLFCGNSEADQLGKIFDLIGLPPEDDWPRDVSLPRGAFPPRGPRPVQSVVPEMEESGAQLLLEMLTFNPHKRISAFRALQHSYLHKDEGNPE
CDK4/Cyclin D1, sequence (P24385 whole entry partner): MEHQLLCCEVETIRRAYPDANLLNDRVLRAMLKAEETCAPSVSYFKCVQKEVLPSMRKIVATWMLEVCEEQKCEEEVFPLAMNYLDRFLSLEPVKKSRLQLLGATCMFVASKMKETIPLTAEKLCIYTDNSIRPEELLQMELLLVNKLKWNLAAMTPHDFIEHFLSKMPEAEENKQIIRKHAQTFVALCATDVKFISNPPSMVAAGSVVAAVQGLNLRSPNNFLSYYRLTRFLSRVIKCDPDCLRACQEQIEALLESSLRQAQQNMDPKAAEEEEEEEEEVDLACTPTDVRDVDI

Row | SMILES | IC50 [1] | IC50 [2] | IC50 [3] | IC50 [4] | IC50 [5]
1 | CO[C@H]1CC[C@]2(CC1)CN=Cc1cc3cnc(Nc4ccc(N5CCN(C)CC5)cn4)nc3n12 [Compound 12, (1R,4R)-4-methoxy-N-(5-(4-methylpiperazin-1-yl)pyridin-2-yl)-8′H-spiro[cyclohexane-1,9′-pyrazino[1′,2′:1,5]pyrrolo[2,3-d]pyrimidin]-2′-amine] | 40 nM | 100 nM | 7000 nM | 10000 nM | 1000 nM
2 | CN1CCN(c2ccc(Nc3ncc4cc5n(c4n3)C3(CCCCC3)CN=C5)nc2)CC1 [Compound 1, N-(5-(4-methylpiperazin-1-yl)pyridin-2-yl)-8′H-spiro[cyclohexane-1,9′-pyrazino[1′,2′:1,5]pyrrolo[2,3-d]pyrimidin]-2′-amine] | 1 nM | 3 nM | 61 nM | 187 nM | 95 nM
3 | CC1=NCC2(CCCCC2)n2c1cc1cnc(Nc3ccc(N4CCN(C)CC4)cn3)nc12 [Compound 9, 6′-methyl-N-(5-(4-methylpiperazin-1-yl)pyridin-2-yl)-8′H-spiro[cyclohexane-1,9′-pyrazino[1′,2′: 1,5]pyrrolo[2,3-d]pyrimidin]-2′-amine] | 96 nM | 24 nM | 3000 nM | 3700 nM | 2500 nM
4 | CN1CCN(c2ccc(Nc3ncc4cc5n(c4n3)C3(CCCCC3)CN=C5Nc3ccccc3)nc2)CC1 [Compound 4, N2′-(5-(4-methylpiperazin-1-yl)pyridin-2-yl)-N6′-phenyl-8′H-spiro[cyclohexane-1,9′-pyrazino[1′,2′: 1,5]pyrrolo[2,3-d]pyrimidine]-2′,6′-diamine] | 27 nM | 61 nM | 54900 nM | 24600 nM | 1570 nM
5 | CN1CCN(c2ccc(Nc3ncc4cc5n(c4n3)C3(CCCCC3)CN=C5NCc3ccccc3)nc2)CC1 [Compound 5, N6′-benzyl-N2′-(5-(4-methylpiperazin-1-yl)pyridin-2-yl)-8′H-spiro[cyclohexane-1,9′-pyrazino[1′,2′: 1,5]pyrrolo[2,3-d]pyrimidine]-2′,6′-diamine] | 160 nM | 390 nM | > 100000 nM | 70700 nM | 11200 nM
6 | CN1CCN(c2ccc(Nc3ncc4cc5n(c4n3)C3(CCOCC3)CN=C5)nc2)CC1 [Compound 10, N-(5-(4-methylpiperazin-1-yl)pyridin-2-yl)-2,3,5,6-tetrahydro-8′H-spiro[pyran-4,9′-pyrazino[1′,2′: 1,5]pyrrolo[2,3-d]pyrimidin]-2′-amine] | 40 nM | 70 nM | 5000 nM | 7000 nM | 2000 nM
7 | CN1CCN(c2ccc(Nc3ncc4cc5n(c4n3)C3(CCCCC3)CNC5)nc2)CC1 [Compound 2, N-(5-(4-methylpiperazin-1-yl)pyridin-2-yl)-7′,8′-dihydro-6′H-spiro[cyclohexane-1,9′-pyrazino[1′,2′: 1,5]pyrrolo[2,3-d]pyrimidin]-2′-amine] | 29 nM | 90 nM | 5750 nM | 12900 nM | 4470 nM
8 | CO[C@H]1CC[C@@]2(CC1)CN=Cc1cc3cnc(Nc4ccc(N5CCN(C)CC5)cn4)nc3n12 [Compound 13, (1S,4S)-4-methoxy-N-(5-(4-methylpiperazin-1-yl)pyridin-2-yl)-8′H-spiro[cyclohexane-1,9′-pyrazino[1′,2′:1,5]pyrrolo[2,3-d]pyrimidin]-2′-amine] | 9 nM | 20 nM | 3000 nM | 4000 nM | 900 nM
9 | CCCNC1=NCC2(CCCCC2)n2c1cc1cnc(Nc3ccc(N4CCN(C)CC4)cn3)nc12 [Compound 3, N2′-(5-(4-methylpiperazin-1-yl)pyridin-2-yl)-N6′-propyl-8′H-spiro[cyclohexane-1,9′-pyrazino[1′,2′: 1,5]pyrrolo[2,3-d]pyrimidine]-2′,6′-diamine] | 740 nM | 1260 nM | > 100000 nM | > 100000 nM | 32500 nM
